The text below walks through data of US8927531B2, “Indanyloxydihydrobenzofuranylacetic acids” (Boehringer Ingelheim International GmbH, priority 2013, dated 2015).

A word on the EC50: it is the concentration needed to bring the measured effect to its halfway point. The low end stands for higher potency in that assay, the high end for lower potency in that assay.

The target in the experiment is human GPR40 receptor (Homo sapiens, UniProt O14842). The experiment in a line: IP1 accumulation measurements using the IPOne assay system in 1321N1 cells stably expressing human GPR40 receptor. Type of experiment: cell-based. The settings on record: stimulation 1 h at 37° C. How it is done: IP1 accumulation measurements using the IPOne assay system—1321N1 cells stably expressing human GPR40 receptor (Euroscreen, Belgium) are seeded 24 h before the assay in white 384-well plates in culture medium containing 10% FCS, 1% Na-Pyruvate and 400 μg/mL G418. IP1 is assayed according to the manufacturer's description (Cisbio Bioassays, France). In brief, the assay is started by substitution of the culture medium by stimulation buffer (Hepes 10 mM, CaCl2 1 mM, MgCl2 0.5 mM, KCl 4.2 mM, NaCl 146 mM, glucose 5.5 mM and LiCl 50 mM, pH 7.4). Cells are stimulated for 1 h at 37° C., 5% CO2 by addition of the compounds that are diluted in stimulation buffer containing LiCl. Assays are stopped by adding HTRF-conjugates (IP1-d2 and Anti-IP1 cryptate Tb) and lysis buffer, provided by the manufacturer. After an incubation time of 1 h at room temperature plates are measured using an EnVision™, Perkin Elmer. The obtained fluorescence ratios at 665/615 […] are then used to calculate the pEC50 values using Assay Explorer 3.3 Software (Accelrys, Inc.) by interpolation using an IP1 reference curve and subsequent sigmoidal curve fitting allowing for a variable hill slope.
Sequence of human GPR40 receptor (O14842 whole entry): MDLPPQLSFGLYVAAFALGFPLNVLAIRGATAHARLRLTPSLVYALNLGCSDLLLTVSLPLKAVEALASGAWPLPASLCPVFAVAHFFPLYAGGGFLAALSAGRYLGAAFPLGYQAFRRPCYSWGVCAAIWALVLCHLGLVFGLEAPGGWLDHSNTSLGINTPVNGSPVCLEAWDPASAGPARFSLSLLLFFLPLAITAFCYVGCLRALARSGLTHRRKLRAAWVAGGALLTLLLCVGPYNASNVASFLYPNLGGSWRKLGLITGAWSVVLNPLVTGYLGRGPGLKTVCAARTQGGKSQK
`O=C(O)C[C@@H]1COc2cc(O[C@@H]3CCc4c3ccc(C(F)(F)F)c4CN3CCCCC3)ccc21` [Example 5, {(S)-6-[(R)-4-Piperidin-1-ylmethyl-5-trifluoromethyl-indan-1-yloxy]-2,3-dihydro-benzofuran-3-yl}-acetic acid] came in with an EC50 of 5 nM.
The value for `O=C(O)C[C@@H]1COc2cc(O[C@@H]3CCc4c3ccc(C(F)(F)F)c4CN3CCNCC3)ccc21` [Example 15, {(S)-6-[(R)-4-piperazin-1-ylmethyl-5-trifluoromethyl-indan-1-yloxy]-2,3-dihydro-benzofuran-3-yl}-acetic acid] was 468 nM; that for `O=C(O)C[C@@H]1COc2cc(O[C@@H]3CCc4c3ccc(C(F)(F)F)c4CN3CCc4ncsc4C3)ccc21` [Example 30, {(S)-6-[(R)-4-(6,7-Dihydro-thiazolo[5,4-c]pyridin-5-ylmethyl)-5-trifluoromethyl-indan-1-yloxy]-2,3-dihydro-benzofuran-3-yl}-acetic acid] was 3 nM.
To `CC(C)(C)OC(=O)N1CCN(Cc2c(C(F)(F)F)ccc3c2CC[C@H]3Oc2ccc3c(c2)OC[C@H]3CC(=O)O)CC1` [Example 2, {(S)-6-[(R)-4-(4-tert-Butoxycarbonyl-piperazin-1-ylmethyl)-5-trifluoromethyl-indan-1-yloxy]-2,3-dihydro-benzofuran-3-yl}-acetic acid] belongs 20 nM; to `CC1(C)CN(Cc2c(C(F)(F)F)ccc3c2CC[C@H]3Oc2ccc3c(c2)OC[C@H]3CC(=O)O)CCO1` [Example 23, {(S)-6-[(R)-4-(2,2-Dimethyl-morpholin-4-ylmethyl)-5-trifluoromethyl-indan-1-yloxy]-2,3-dihydro-benzofuran-3-yl}-acetic acid], 7 nM; to `O=C(O)C[C@@H]1COc2cc(O[C@@H]3CCc4c3ccc(C(F)(F)F)c4CN3CCCOCC3)ccc21` [Example 9, {(S)-6-[(R)-[1,4]Oxazepan-4-ylmethyl-5-trifluoromethyl-indan-1-yloxy]-2,3-dihydro-benzofuran-3-yl}-acetic acid], 3 nM.
Regarding `O=C(O)C[C@@H]1COc2cc(O[C@@H]3CCc4c3ccc(C(F)(F)F)c4CN3CCCCCC3)ccc21` [Example 19, {(S)-6-[(R)-4-Azepan-1-ylmethyl-5-trifluoromethyl-indan-1-yloxy]-2,3-dihydro-benzofuran-3-yl}-acetic acid], the EC50 was determined as 7 nM.
The compound `O=C(O)C[C@@H]1COc2cc(O[C@@H]3CCc4c3ccc(C(F)(F)F)c4CN3CCc4nocc4C3)ccc21` [Example 34, {(S)-6-[(R)-4-(6,7-Dihydro-isoxazolo[4,3-c]pyridin-5-ylmethyl)-5-trifluoromethyl-indan-1-yloxy]-2,3-dihydro-benzofuran-3-yl}-acetic acid] registered an EC50 of 3 nM.
`CC(=O)N1CCN(Cc2c(C(F)(F)F)ccc3c2CC[C@H]3Oc2ccc3c(c2)OC[C@H]3CC(=O)O)CC1` [Example 16, {(S)-6-[(R)-4-(4-Acetyl-piperazin-1-ylmethyl)-5-trifluoromethyl-indan-1-yloxy]-2,3-dihydro-benzofuran-3-yl}-acetic acid] showed an EC50 of 16 nM.
The value for `O=C(O)C[C@@H]1COc2cc(O[C@@H]3CCc4c3ccc(C(F)(F)F)c4CN3CCn4ccnc4C3)ccc21` [Example 27, {(S)-6-[(R)-4-(5,6-Dihydro-8H-imidazo[1,2-a]pyrazin-7-ylmethyl)-5-trifluoromethyl-indan-1-yloxy]-2,3-dihydro-benzofuran-3-yl}-acetic acid] was 17 nM.
The value for `O=C(O)C[C@@H]1COc2cc(O[C@@H]3CCc4c3ccc(C(F)(F)F)c4CN3CCC4(CCCO4)CC3)ccc21` [Example 11, {(S)-6-[(R)-4-(1-Oxa-8-aza-spiro[4.5]dec-8-ylmethyl)-5-trifluoromethyl-indan-1-yloxy]-2,3-dihydro-benzofuran-3-yl}-acetic acid] was 6 nM.
